Experimental data from patent publication US20200003760A1, “IN-VITRO METHODS FOR CLASSIFYING DRUGS ACCORDING TO THEIR POTENTIAL TO CAUSE LIVER CELL INJURY” (Board of Trustees of Michigan State University, priority 2018, published 2020).
Like-named read-outs stand apart in the source and are kept apart here.

Columns and labels:
[1] = Logistic regression classification model: probability that a drug is associated with IDILI; set-up: species or system human; settings: for Estimated probability: probability that drug is associated with IDILI, covariates Deltadiff, EC50 VEH, EC50 TNF, Delta VEH, Cmax, optimal cutoff 0.46
Text: Classification modeling using defined covariates. In the second phase of analysis, classification models were developed using logistic regression with covariates as independent variables in the analysis and known IDILI classification as the dependent variable. A model selection process was used to determine if a covariate or set of covariates is associated with IDILI liability. Covariates were first evaluated individually to determine how well a particular covariate classified drugs according to IDILI liability, and then covariates were evaluated in combination. Combinations of covariates were selected to maximize the ability of the model to distinguish between drugs associated or not with IDILI. Specifically, covariates that describe changes in efficacy (Delta, Deltadiff, etc.) were paired with covariates that describe changes in potency (EC50, EC10, R10, etc.) to find covariate combinations that led to models that most accurately discriminated between drugs that are and are not associated with IDILI. […] The logistic regression models follow the equation: […]
where ŷi is the calculated (predicted) probability that drug i with a vector of covariates xi is associated with IDILI. The β coefficients (β0, the regression intercept; and βi, the regression slopes for model covariates, xi) were derived from the logistic regression models using 1) combinations of the covariates (xi) generated by concentration-response modeling for each of the 24 drugs evaluated in this study, and 2) the true IDILI classification for the dependent variable yi (i.e., 1 for IDILI+drugs and 0 for IDILI-drugs). […] This occurs when a covariate almost perfectly separates observations into the appropriate categories. […] When separation or quasi-complete separation occurs, use of the standard method (i.e., maximum likelihood estimation) provides biased, unreliable estimates of βi.
Receiver operating characteristic (ROC) analysis. In the third phase of the statistical approach, the classification models, generated as logistic regression models using single covariates or combinations of covariates, were evaluated by ROC analysis to determine which model and corresponding sets of covariates led to the most accurate classification of drugs according to their potential to cause IDILI. An ROC curve was created for each model by graphing the true positive rate (sensitivity; i.e., proportion of drugs correctly classified as associated with IDILI) against the false positive rate (1-specificity; i.e., proportion of drugs incorrectly classified as associated with IDILI) at various probability cutoff thresholds (k). […] An area under the curve (AUC) and confidence interval was computed for each ROC curve (where each logistic regression model has one ROC curve). […] Corresponding to each ROC curve is an optimal threshold value (k*), the threshold yielding the highest point of accuracy on the curve (i.e., the point nearest the point […] on the curve). Thus, each ROC curve has a corresponding AUC and an optimal cutoff (k*) that corresponds to the highest point of accuracy on that ROC curve.

[2] = cited from earlier work
[3] = system: HepG2 cells; test: Drug/cytokine-induced cytotoxicity (% LDH release) concentration-response in HepG2 cells; format: cell-based, human; set-up: key to Deltadiff: LDH release percentage points (drug/TNF Delta minus drug/VEH Delta); settings: for R10 IFN: with IFN; for R10 TNF: with TNF; for R10 TNF/IFN / EC10 TNF/IFN: with TNF and IFN; for Deltadiff: Delta of drug/TNF curve minus Delta of drug/VEH curve (LDH percentage); for TNF change: D10TNF − D10VEH; for EC10 TNF/IFN / EC10 TNF / EC10 IFN: value corresponding to 10% of Delta; for EC10 TNF/IFN / EC10 TNF / EC10 / EC10 IFN: NA = no significant increase; for cytotoxic interaction of drug with TNF: TNF 10 ng/ml; for effect of IFN coexposure on the drug/TNF cytotoxic interaction: TNF and IFN 10 ng/ml each; for cytotoxicity of drug on its own (LDH release): absence of cytokines; for EC10 TNF: with TNF 10 ng/ml; for EC10: value corresponding to 10% of Delta (max-min); for EC10 IFN: with IFN 10 ng/ml
Method: Cells were passed or used for experiments when they reached approximately 80% confluence. Cells were used at passage 6-16.
HepG2 cells were plated at a density of 4×10^4 cells per well in black-walled, 96-well, tissue culture plates and were allowed to attach overnight before being treated with compounds. Drugs were reconstituted in vehicles consisting of sterile water or DMSO (concentration less than 0.5%). Cells were treated with various concentrations of the drug or its vehicle (control) alone or in combination with the cytokines TNF (10 ng/ml) and/or IFN (10 ng/ml) or their PBS vehicle (VEH). Cytotoxicity was evaluated as lactate dehydrogenase (LDH) activity released from the cells into culture medium using the Homogeneous Membrane Integrity Assay kit from Promega (Madison, Wis.).
Concentration-response curves were generated for 24 drugs, 14 of which are associated with human IDILI and 10 of which are not. […] This was necessary because four-parameter logistic modeling used in the statistical analysis requires well defined, sigmoidal concentration-response curves. Cells were exposed to drug/cytokine combinations for 24 hours. For analysis of drug concentration-response data, concentrations of each drug were expressed as a fraction of its Cmax.
Defining covariates: four-parameter logistic model. In the first phase, variables (potential covariates) for use in the classification analysis were defined from the analysis of drug concentration-response data. Initially, a one-way analysis of variance (ANOVA) was used as an omnibus test to determine if a particular treatment (e.g. drug alone or in combination with TNF and/or IFN) caused a significant change in LDH release relative to baseline (i.e., LDH release in the absence of drug, hereafter designated “min”). The criterion for significance for the ANOVA was set at α=0.01. A 1% level of significance was used to rule out more vigorously marginal relationships between concentration and response.
where LDH(x) is the percentage of LDH released at a given concentration x; x=[drug]/Cmax; min=the % LDH release at 0 drug concentration (i.e., baseline); and max=the maximal LDH response (i.e., maximum % LDH release).
where D10 is a categorical variable related to reaching a threshold LDH response above which a drug is classified as positively associated with IDILI. D10 is defined as 0 if Delta<10% LDH release and as 1 if Delta≥10% LDH release.
The base covariate R10 represents the [drug]/Cmax value associated with an increase in 10 LDH percentage points above min for a particular treatment condition and was determined by the equation:
R10 was considered to be 0 when the Delta<10% LDH (i.e. when D10=0).
EC50 quotient, EC10 quotient and R10 quotient represent the ratio between the EC50, EC10 or R10 of the drug/cytokine concentration-response curve and the respective value for the drug/VEH concentration-response curve. In some instances, the value derived from this calculation is indeterminate (i.e. when the denominator=0). In order to incorporate the quotient values into the classification models described below, the categorical variable “Q” was used to eliminate the possibility of the quotient being indeterminate. Q is defined as 0 if Delta VEH and/or Delta cytokine is <10% LDH and 1 if both Delta VEH and Delta cytokine are ≥10% LDH. […] The same condition was applied for calculation of EC10 quotient and R10 quotient.
Deltadiff represents the difference between the Delta of the drug/cytokine concentration-response curve and the Delta of the drug/VEH curve. In other words, Deltadiff=(Delta cytokine)−(Delta VEH). FIG. 1 graphically illustrates several of the covariates defined above. […] In addition to the covariates derived from the concentration-response curves, the maximal therapeutic plasma drug concentration (Cmax) in human patients was used in some models (Table 1).

[4] = cited from earlier work; for True classification: IDILI in human patients; for IDILI liability: criteria of Xu et al. (2008)
[5] = 10 percent increase in LDH response above min, 0 when D10 = 0, drug alone (VEH)
[6] = 10 percent increase in LDH response above min, 0 when D10 = 0
[7] = Homo sapiens, HepG2, categorical, Delta threshold 10 LDH percentage points, drug alone (VEH), read-out: D10
[8] = Homo sapiens, HepG2, maximal LDH response, drug alone (VEH), 24 h, read-out: max
[9] = maximal plasma concentration after pharmacologic dosing in human patients

Estimated probability [1]	SMILES	R10 [3, 5]	R10 IFN [3, 6]	R10 TNF [3, 6]	R10 TNF/IFN [3, 6]	Deltadiff [3]	Emax [3, 7]	Emax [3, 8]	TNF change ([3]; categorical)	True classification [4]	IDILI liability [4]	Cmax [2, 9]	EC10 TNF/IFN [3]	cytotoxic interaction of drug with TNF ([3]; HepG2, 24 h)	cytotoxicity of drug on its own (LDH release) ([3]; HepG2, 24 h)	EC10 TNF [3]	other results
0.1276	CC[C@H]1OC(=O)[C@H](C)[C@@H](O[C@H]2C[C@@](C)(OC)[C@@H](O)[C@H](C)O2)[C@H](C)[C@@H](O[C@@H]2O[C@H](C)C[C@H](N(C)C)[C@H]2O)[C@](C)(O)C[C@@H](C)CN(C)[C@H](C)[C@@H](O)[C@]1(C)O [Azithromycin]	0 [drug]/Cmax	0 [drug]/Cmax	0 [drug]/Cmax	333.9 [drug]/Cmax	0	< 10%	11.6%	0	IDILI−	IDILI−	0.5 µM	59.2 [drug]/Cmax	–	–	–	synergy with cytokines to kill HepG2 cells ([3]; HepG2, 24 h, TNF and/or IFN): modestly cytotoxic in the presence of TNF/IFN
0.9397	Nc1c(CC(=O)O)cccc1C(=O)c1ccc(Br)cc1 [Bromfenac]	0 [drug]/Cmax	0 [drug]/Cmax	40.6 [drug]/Cmax	28.9 [drug]/Cmax	22.6	< 10%	13.8%	1	IDILI+	IDILI+	13.5 µM	18.9 [drug]/Cmax	synergized with TNF to cause cytotoxicity	caused no cytotoxicity on their own	22.6 [drug]/Cmax	effect of IFN coexposure on the drug/TNF cytotoxic interaction ([3]; HepG2, 24 h): coexposure to IFN enhanced the cytotoxic interaction
0.8589	COc1ccc2cc([C@H](C)C(=O)O)ccc2c1 [Naproxen]	60.5 [drug]/Cmax	65.9 [drug]/Cmax	24.3 [drug]/Cmax	18.4 [drug]/Cmax	−9.3	> 10%	102%	–	IDILI+	–	–	17.3 [drug]/Cmax	–	–	23.6 [drug]/Cmax	EC10 ([3]; drug alone (VEH)): 59.8 [drug]/Cmax; EC10 IFN [3]: 64.8 [drug]/Cmax
1	CS(=O)(=O)Nc1ccc([N+](=O)[O-])cc1Oc1ccccc1 [Nimesulide]	–	0 [drug]/Cmax	32.0 [drug]/Cmax	33.5 [drug]/Cmax	92.3	–	14.6%	1	–	–	21.1 µM	33.2 [drug]/Cmax	synergized with TNF to cause cytotoxicity	caused no cytotoxicity on their own	31.8 [drug]/Cmax	R10 [3]: 0 [drug]/Cmax; Emax ([3]; Homo sapiens, HepG2, read-out: D10): < 10%

Second part, the compound before the results:

SMILES	Estimated probability [1]	R10 [3, 5]	R10 IFN [3, 6]	R10 TNF [3, 6]	R10 TNF/IFN [3, 6]	Deltadiff [3]	Emax [3, 7]	Emax [3, 8]	TNF change ([3]; categorical)	True classification [4]	IDILI liability [4]	Cmax [2, 9]	EC10 TNF/IFN [3]	cytotoxic interaction of drug with TNF ([3]; HepG2, 24 h)	cytotoxicity of drug on its own (LDH release) ([3]; HepG2, 24 h)	EC10 TNF [3]	other results
CC(C)(O)C(=O)Nc1ccc([N+](=O)[O-])c(C(F)(F)F)c1 [2-hydroxyflutamide]	–	–	–	–	–	–	–	–	–	–	–	–	–	–	–	–	calculated probability for association with IDILI ([1]; best-performing classification model): 0.999; Cmax ([2]; metabolite of flutamide in vivo): 5.74 µM
CC(=O)Oc1ccccc1C(=O)O [Aspirin]	0.1445	0 [drug]/Cmax	0 [drug]/Cmax	0 [drug]/Cmax	0 [drug]/Cmax	0	< 10%	11%	0	IDILI−	IDILI−	47 µM	–	–	–	–	–
CN(C)CCCN1c2ccccc2Sc2ccc(Cl)cc21 [Chlorpromazine]	0.961	36.0 [drug]/Cmax	34.8 [drug]/Cmax	31.5 [drug]/Cmax	25.3 [drug]/Cmax	−15.3	–	111%	–	IDILI+	IDILI+	0.84 µM	24.1 [drug]/Cmax	TNF significantly enhanced the cytotoxicity	statistically significant increase in LDH release	30.5 [drug]/Cmax	effect of IFN coexposure on the drug/TNF cytotoxic interaction ([3]; HepG2, 24 h): coexposure to IFN enhanced the cytotoxic interaction; D10 (LDH rise of at least 10 points, yes/no) ([3]; Homo sapiens, HepG2, categorical, Delta threshold 10 LDH percentage points, drug alone (VEH)): > 10%; EC10 ([3]; drug alone (VEH)): 35.8 [drug]/Cmax; EC10 IFN [3]: 34.1 [drug]/Cmax
